From patent US8404713B2, “Quinolinone derivatives as PARP inhibitors” (Janssen Pharmaceutica NV, priority 2007, dated 2013)

Key:
[1] = tested on: ischemia and reperfusion of the heart or skeletal muscle; settings: rabbits, cited from earlier work
[2] = tested on: colitis induced by intraluminal trinitrobenzene sulfonic acid; settings: rats, colitis by trinitrobenzene sulfonic acid in 50% ethanol; cited from earlier work
[3] = molecular target: T1, TANK-2 enzyme (Homo sapiens, UniProt Q9H2K2); assay: In vitro scintillation proximity assay (SPA) for TANK-2 inhibitory activity; type: biochemical; settings: auto-poly(ADP-ribosyl)ation, Ni flash plates; 96-well results if available, otherwise 384-well; tested between 10^-5 M and 3x10^-8 M; read-out: in vitro SPA assay TANK-2 pIC50 (converted)
T1 construct: made in house
T1 sequence (Q9H2K2 1-1166): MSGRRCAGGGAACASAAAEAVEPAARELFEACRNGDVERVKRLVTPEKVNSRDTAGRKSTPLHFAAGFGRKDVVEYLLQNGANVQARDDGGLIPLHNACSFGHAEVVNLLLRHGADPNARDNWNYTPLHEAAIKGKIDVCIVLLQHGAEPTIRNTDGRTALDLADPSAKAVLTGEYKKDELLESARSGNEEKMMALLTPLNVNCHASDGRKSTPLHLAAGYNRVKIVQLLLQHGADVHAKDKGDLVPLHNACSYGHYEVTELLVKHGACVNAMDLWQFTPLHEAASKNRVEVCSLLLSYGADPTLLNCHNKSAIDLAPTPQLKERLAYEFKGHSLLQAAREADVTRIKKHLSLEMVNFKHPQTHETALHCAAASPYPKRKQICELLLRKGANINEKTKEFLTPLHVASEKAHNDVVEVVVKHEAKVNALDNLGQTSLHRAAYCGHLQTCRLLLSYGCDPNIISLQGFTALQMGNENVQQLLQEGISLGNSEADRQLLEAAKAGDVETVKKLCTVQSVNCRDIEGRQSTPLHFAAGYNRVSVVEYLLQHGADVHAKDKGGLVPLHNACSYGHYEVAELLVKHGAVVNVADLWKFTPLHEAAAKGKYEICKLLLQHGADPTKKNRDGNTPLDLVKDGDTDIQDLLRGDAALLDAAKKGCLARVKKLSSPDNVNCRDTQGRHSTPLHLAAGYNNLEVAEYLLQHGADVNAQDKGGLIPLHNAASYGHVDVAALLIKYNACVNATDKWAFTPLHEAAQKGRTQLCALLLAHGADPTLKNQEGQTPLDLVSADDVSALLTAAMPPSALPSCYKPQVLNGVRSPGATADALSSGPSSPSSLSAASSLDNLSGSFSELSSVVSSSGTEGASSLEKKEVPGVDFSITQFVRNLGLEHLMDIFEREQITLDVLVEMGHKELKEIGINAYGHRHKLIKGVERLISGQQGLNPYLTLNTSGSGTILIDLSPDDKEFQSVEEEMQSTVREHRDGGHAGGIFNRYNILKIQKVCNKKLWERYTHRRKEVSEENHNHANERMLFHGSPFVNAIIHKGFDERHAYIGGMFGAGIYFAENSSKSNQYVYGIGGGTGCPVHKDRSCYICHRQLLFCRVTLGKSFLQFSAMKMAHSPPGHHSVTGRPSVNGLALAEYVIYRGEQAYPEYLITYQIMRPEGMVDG
Procedure: C.2. In Vitro Scintillation Proximity Assay (SPA) for TANK-2 Inhibitory Activity
Compounds of the present invention were tested in an in vitro assay based on SPA technology with Ni Flash plates (96 or 384 well).
In principle, the assay relies upon SPA technology for the detection of auto-poly(ADP-ribosyl)ation of TANK-2 protein using [^3H]-nicotinamide adenine dinucleotide ([^3H]-NAD^+) as ADP-ribosyl donor.
A stock solution of 100 nM [^3H]-NAD^+/NAD (0.1 mCi/ml, supplier: Perkin Elmer) and 0.25 mM NAD (Sigma) was made in assay buffer (60 mM Tris/HCl, pH 7.4; 0.9 mM DTT; 6 mM MgCl2). The TANK-2 enzyme was produced as described in EP1238063. 60 μl of assay buffer, together with 1 μl of compound in DMSO, 20 μl of [^3H]-NAD^+/NAD and 20 μl of TANK-2 enzyme (final concentration 8 μg/ml) was added per well into a 96-well Ni-coated flash plate (Perkin Elmer). After incubation of the mixture for 120 min. at room temperature, the reaction was terminated by adding 60 μl of stopsolution (42.6 mg NAD in 6 ml H2O). The plates were covered with a plate sealer and placed in a TopCountNX™ (Packard) for scintillation counting. Values were expressed as counts per minute (cpm). For each experiment, controls (containing TANK-2 enzyme and DMSO without compound), a blank incubation (containing DMSO but no TANK-2 enzyme or compound) and samples (containing TANK-2 enzyme and compound dissolved in DMSO) were run in parallel. All compounds tested were dissolved and eventually further diluted in DMSO. […] In each test, the blank value was subtracted from both the control and the sample values. The control sample represented maximal TANK-2 enzyme activity. For each sample, the amount of cpm was expressed as a percentage of the mean cpm value of the controls. When appropriate, IC50-values (concentration of the drug, needed to reduce the TANK-2 enzyme activity to 50% of the control) were computed using linear interpolation between the experimental points just above and below the 50% level. Herein the effects of test compounds are expressed as pIC50 (the negative log value of the IC50-value). As reference compounds, 3-aminobenzamide and 4-amino-1,8-naphtalimide were included to validate the SPA assay. Herein the assay was described using 96-well plates. In the assay using 384-well plates the same final concentrations were used and volumes were adapted.

[4] = molecular target: T2, Human PARP-1 enzyme (Homo sapiens, UniProt P09874); assay: In vitro scintillation proximity assay (SPA) for PARP-1 inhibitory activity; type: biochemical; settings: nicked DNA activated PARP-1, [3H]-NAD+, biotinylated histones; tested between 10^-5 M and 3x10^-9 M; read-out: in vitro SPA assay PARP-1 pIC50 (converted)
T2 construct: purchased Trevigen
T2 sequence (P09874 whole entry): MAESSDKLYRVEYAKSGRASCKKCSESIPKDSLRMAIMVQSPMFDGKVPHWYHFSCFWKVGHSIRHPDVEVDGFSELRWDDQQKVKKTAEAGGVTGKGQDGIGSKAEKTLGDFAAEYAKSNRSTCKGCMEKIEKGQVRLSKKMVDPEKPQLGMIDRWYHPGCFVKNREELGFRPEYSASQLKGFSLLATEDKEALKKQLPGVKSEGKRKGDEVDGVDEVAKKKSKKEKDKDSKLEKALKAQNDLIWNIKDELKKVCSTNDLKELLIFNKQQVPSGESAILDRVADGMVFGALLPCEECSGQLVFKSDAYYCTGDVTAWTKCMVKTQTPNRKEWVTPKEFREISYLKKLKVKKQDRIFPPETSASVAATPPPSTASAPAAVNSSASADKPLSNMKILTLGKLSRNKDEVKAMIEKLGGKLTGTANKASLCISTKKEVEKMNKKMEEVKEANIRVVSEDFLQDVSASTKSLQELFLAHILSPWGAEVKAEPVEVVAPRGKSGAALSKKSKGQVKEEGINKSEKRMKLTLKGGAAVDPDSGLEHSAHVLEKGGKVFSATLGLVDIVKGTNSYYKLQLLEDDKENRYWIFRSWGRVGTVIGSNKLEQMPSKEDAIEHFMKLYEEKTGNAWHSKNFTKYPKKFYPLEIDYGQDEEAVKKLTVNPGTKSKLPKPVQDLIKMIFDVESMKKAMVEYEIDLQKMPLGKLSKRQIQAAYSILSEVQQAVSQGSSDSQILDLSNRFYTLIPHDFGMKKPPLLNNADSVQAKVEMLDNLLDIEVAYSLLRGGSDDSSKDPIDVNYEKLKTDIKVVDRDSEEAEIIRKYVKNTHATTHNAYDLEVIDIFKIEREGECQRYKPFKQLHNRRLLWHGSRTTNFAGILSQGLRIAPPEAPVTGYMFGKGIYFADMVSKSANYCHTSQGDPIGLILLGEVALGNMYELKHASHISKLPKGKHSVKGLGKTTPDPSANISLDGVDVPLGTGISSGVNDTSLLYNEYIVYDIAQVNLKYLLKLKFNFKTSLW
Procedure: C.1. In Vitro Scintillation Proximity Assay (SPA) for PARP-1 Inhibitory Activity
Compounds of the present invention were tested in an in vitro assay based on SPA technology (proprietary to GE healthcare).
In principle, the assay relies upon the well established SPA technology for the detection of poly(ADP-ribosyl)ation of biotinylated target proteins, i.e histones. This ribosylation is induced using nicked DNA activated PARP-1 enzyme and [^3H]-nicotinamide adenine dinucleotide ([^3H]-NAD^+) as ADP-ribosyl donor.
Histones (type II-A, supplier: Sigma) were biotinylated using the biotinylation kit of Amersham and stored aliquoted at −20° C. A stock solution of 100 mg/ml SPA poly(vinyl toluene) (PVT) beads (supplier: Amersham) was made in PBS. A stock solution of 61.6 nM [^3H]-NAD^+ was made by adding [^3H]-NAD^+ (0.1 mCi/ml, supplier: Perkin Elmer) to incubation buffer (50 mM Tris/HCl, pH 8; 0.2 mM DTT; 4 mM MgCl2). A solution of 4 mM NAD^+ (supplier: Sigma) was made. Human PARP-1 enzyme was obtained from Trevigen. Biotinylated histones and PVT-SPA beads were mixed and pre-incubated for 30 min. at room temperature. PARP-1 enzyme (concentration was lot dependent) was mixed with the nicked DNA and the mixture was pre-incubated for 30 min. at 4° C. Equal parts of this histones/PVT-SPA beads solution and PARP-1 enzyme/DNA solution were mixed and 75 μl of this mixture together with 1 μl of compound in DMSO and 25 μl of [^3H]-NAD^+ was added per well into a 96-well microtiterplate. The final concentrations in the incubation mixture were 2 μg/ml for the biotinylated histones, 2 mg/ml for the PVT-SPA beads, 0.25 μg/ml for the nicked DNA and between 0.1-0.2 μg/ml for the PARP-1 enzyme. After incubation of the mixture for 20 min. at room temperature, the reaction was terminated by adding 100 μl of 4 mM NAD^+ in water (final concentration 2 mM) and plates were mixed. The beads were sedimented by centrifugation (10 min, 800 rpm). and plates transferred to a TopCountNXT™ (Packard) for scintillation counting, values were expressed as counts per minute (cpm). For each experiment, controls (containing PARP-1 enzyme and DMSO without compound), a blank incubation (containing DMSO but no PARP-1 enzyme, no DNA or compound) and samples (containing PARP-1 enzyme, DNA and compound dissolved in DMSO) were run in parallel. All compounds tested were dissolved and eventually further diluted in DMSO. A dose-response curve was made wherein the compounds were tested at concentrations between 10^−5M and 3×10^−9M. In each test, the blank value was subtracted from both the control and the sample values. The control sample represented maximal PARP-1 enzyme activity. For each sample, the amount of cpm was expressed as a percentage of the mean cpm value of the controls. When appropriate, IC50-values (concentration of the drug, needed to reduce the PARP-1 enzyme activity to 50% of the control) were computed using linear interpolation between the experimental points just above and below the 50% level. Herein the effects of test compounds are expressed as pIC50 (the negative log value of the IC50-value). As a reference compound, 4-amino-1,8-naphthalimide was included to validate the SPA assay.

Structure (SMILES) | reduction in infarct size ([1]; single injection 1 mg/kg) | effect on inflammatory response, morphology and energetic status of the distal colon [2] | reduction in infarct size in the heart ([1]; single injection 10 mg/kg, one minute before occlusion or one minute before reperfusion) | melting point | IC50 [3] | IC50 [4]
Oc1cccc2c(O)nccc12 [1,5-dihydroxyisoquinoline] | 38-48% | – | – | – | – | –
NC(=O)c1cccc(N)c1 [3-amino-benzamide] | – | reduced the inflammatory response and restored the morphology and the energetic status of the distal colon | 32-42% | – | – | –
CCc1cc2ccc(C(O)CN3CCOCC3)cc2[nH]c1=O (stereo not drawn) [Compound 4] | – | – | – | 163 °C | 225 nM | 201 nM
CCc1cc2ccc(CN3CCN(c4ccccc4)CC3)cc2[nH]c1=O [Compound 6] | – | – | – | 242 °C | 1900 nM | 0.938 nM
Cc1cc2ccc(CN3CCC(c4ccccc4)CC3)cc2[nH]c1=O [Compound 7] | – | – | – | 225 °C | > 10000 nM | 1.52 nM
CCc1cc2ccc(C(CO)N3CCC(Cc4ccccc4)CC3)cc2[nH]c1=O (stereo not drawn) [Compound 9] | – | – | – | 172 °C | 3100 nM | 109 nM
CCc1cc2ccc(C(=O)N3CCc4ccccc4C3)cc2[nH]c1=O [Compound 10] | – | – | – | 255 °C | 454 nM | 108 nM
CCOC(=O)c1cnc(N2CCN(Cc3ccc4cc(CC)c(=O)[nH]c4c3)CC2)nc1 [Compound 11] | – | – | – | 235 °C | 36.1 nM | 51.3 nM
CCc1cc2ccc(C(C(C)C)N3CCN(c4ccc(C#N)cn4)CC3)cc2[nH]c1=O (stereo not drawn) [Compound 13] | – | – | – | 135 °C | 269 nM | 3.94 nM
CCc1cc2ccc(C(C)NCCc3c[nH]c4ccccc34)cc2[nH]c1=O (stereo not drawn) [Compound 14] | – | – | – | 170 °C | 428 nM | 70.1 nM
CCc1cc2ccc(CNC3CCN(c4ncccn4)CC3)cc2[nH]c1=O [Compound 15] | – | – | – | 168 °C | 2150 nM | 77.4 nM
CCc1cc2ccc(CN3CCN(c4ncc(C(N)=O)cn4)CC3)cc2[nH]c1=O [Compound 16] | – | – | – | > 250 °C | 36.2 nM | 7.4 nM
Cc1cc2ccc(C(C)N3CCN(c4ccccc4C#N)CC3)cc2[nH]c1=O (stereo not drawn) [Compound 20] | – | – | – | 190 °C | 940 nM | 1.08 nM
COc1ccccc1N1CCN(Cc2ccc3cc(C)c(=O)[nH]c3c2)CC1 [Compound 23] | – | – | – | 198 °C | > 10000 nM | 0.251 nM
CCc1cc2c(OC)cc(CN3CCN(c4ccccc4OC)CC3)cc2[nH]c1=O [Compound 64] | – | – | – | 80 °C | 4470 nM | 3.02 nM
Cc1cc2ccc(C(C)N3CCCC3)cc2[nH]c1=O (stereo not drawn) [Compound 68] | – | – | – | 133 °C | 2140 nM | 0.759 nM
